According to patent US9586928B2 (The Scripps Research Institute, priority 2011, dated 2017):

What was measured:
RORα = target: T1, RORα (Homo sapiens, UniProt P35398); assay: Gal4-RORα LBD / UAS luciferase cotransfection assay; assay type: cell-based; conditions: Gal4 chimeric cotransfection
T1 construct: expressed in transfected cells; host or cells: HEK293T
T1 sequence (P35398 272-510 limits assumed): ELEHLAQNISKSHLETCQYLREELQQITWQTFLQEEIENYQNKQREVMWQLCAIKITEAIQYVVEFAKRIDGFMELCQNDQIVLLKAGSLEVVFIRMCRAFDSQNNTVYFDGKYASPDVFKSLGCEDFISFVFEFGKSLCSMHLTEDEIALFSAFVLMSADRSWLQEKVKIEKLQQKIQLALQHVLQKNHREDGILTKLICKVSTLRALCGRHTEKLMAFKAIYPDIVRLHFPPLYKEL

VP16 = assay: Gal4 DBD-VP16 / UAS luciferase control assay; assay type: cell-based
Description: The cells were treated with either DMSO or various compounds as indicated four hours after replating. Following additional 20 hour incubation, luciferase levels were assayed by one-step addition of 20 μL BriteLite (Perkin Elmer) and read using an Envision multilabel plate reader (Perkin Elmer).

LXR = target: T2, LXR (Homo sapiens, UniProt Q13133); assay: Gal4-LXRα / UAS luciferase cotransfection assay; assay type: cell-based
T2 sequence (Q13133 209-447 limits assumed): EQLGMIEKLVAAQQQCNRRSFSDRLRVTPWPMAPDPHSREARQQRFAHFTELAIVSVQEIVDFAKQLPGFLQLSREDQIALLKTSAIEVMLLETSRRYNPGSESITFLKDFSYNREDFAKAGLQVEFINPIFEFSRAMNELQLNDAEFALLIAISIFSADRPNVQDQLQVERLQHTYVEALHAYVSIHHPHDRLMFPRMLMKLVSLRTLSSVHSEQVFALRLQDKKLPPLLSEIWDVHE

FXR = target: T3, FXR (Homo sapiens, UniProt Q96RI1); assay: Gal4-FXR / UAS luciferase cotransfection assay; assay type: cell-based; conditions: Gal4 chimeric cotransfection
T3 sequence (Q96RI1 262-486 limits assumed): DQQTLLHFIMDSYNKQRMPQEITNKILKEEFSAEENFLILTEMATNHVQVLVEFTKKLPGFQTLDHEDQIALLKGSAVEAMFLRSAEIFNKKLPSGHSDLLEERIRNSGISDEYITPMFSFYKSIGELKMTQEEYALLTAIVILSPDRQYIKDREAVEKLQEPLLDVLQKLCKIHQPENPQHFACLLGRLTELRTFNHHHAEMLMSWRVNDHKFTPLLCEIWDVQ
Description: Cotransfection assays were performed as previously described in HEK293 cells (Gal4 cotransfection assay or IL-17 luciferase reporter)[8]. HEK293 and the mouse lymphoma EL4 (ATCC) cells were maintained in DMEM supplemented with 10% FBS plus antibiotics (penicillin and streptomycin; Invitrogen).

EL-4 cells = assay: Intracellular IL-17 in PMA/ionomycin stimulated EL-4 cells (flow cytometry); assay type: cell-based, murine; conditions: 5 μM, compared to vehicle treated cells
Description: The treatment of EL4 with SR2211 repressed the Il17 gene expression to a greater extent as compared to digoxin. […] In order to measure the effect of SR2211 on IL-17 production, we determined the intracellular levels of IL-17 using flow cytometry. After the stimulation of EL-4 cells with PMA/ionomycin for 3 hr, the cells were treated with BD GolgiPlug™ (protein transport inhibitor) to allow intracellular accumulation of cytokines. After 2 hr, the cells were fixed and stained to analyze the IL-17 by flow cytometry.
For intracellular cytokine staining, cells were stimulated with PMA (50 ng/Ml) and lonomycin (1 ug/ml) for 5 hrs. After 3 hrs of incubation, BD Golgiplug (BD Bioscience) was added and incubated for 2 hrs. Then, cells were fixed, permeabilized, and stained with PEIL17A Ab (BD Biosciences). Cell sorting was performed using LSRII (BD Biosciences). • 1. Ivanov, I I; McKenzie, B. S.; Zhou, L.; Tadokoro, C. E.; Lepelley, A.; Lafaille, J. J.; Cua, D. J.; Littman, D. R. (2006) The orphan nuclear receptor RORgammat directs the differentiation program of proinflammatory IL-17+ T helper cells. Cell 126, 1121-1133. • 2. Nakae, S.; Nambu, A.; Sudo. K.; Iwakura. Y. (2003) Suppression of immune induction of collagen-induced arthritis in IL-17-deficient mice. J Immunol 171, 6173-6177. • 3. Jetten. […]

Q: What does the source list for OC(c1ccc(-c2ccc(CN3CCN(Cc4ccncc4)CC3)cc2)c(F)c1)(C(F)(F)F)C(F)(F)F [SR2211, 1,1,1,3,3,3-hexafluoro-2-(2-fluoro-4′-((4-(pyridin-4-ylmethyl)piperazin-1-yl)methyl)-[1,1′-biphenyl]-4-yl)propan-2-ol]?
A: effect on transcriptional activity of RORα (RORα): did not have any impact on the transcriptional activity of RORα; luciferase activity of Gal4 DBD-VP16 (off-target effects/toxicity) (VP16): no change in the luciferase activity of Gal4 DBD-VP16; right shift of EC50 on LXRα (LXR): more than 100 fold; effect on LXR activity (LXR; Gal4 chimeric cotransfection): minimal activation of LXRα; activation of LXRα as compared to T1317 (LXR; highest concentration tested): less than 5%; effect on transcriptional activity of FXR (FXR): no effect on the transcriptional activity of FXR; IL-17 intracellular staining (EL-4 cells): significant inhibition of IL-17 intracellular staining
